Experimental data as given in patent US20140045205A1, “GLUTAMYL AMINOPEPTIDASE AS A MARKER OF RENAL DAMAGE” (UNIVERSIDAD DE GRANADA, priority 2010, published 2014).

Tests used:
[1] = rats, 8% NaCl in diet, 6 weeks
Procedure: (§2) On the one hand, 42 male Wistar rats of 250 g in weight from the animal house of the University of Valladolid were distributed in 6 groups (n=7) with the following treatments: Control, Salt (8% NaCl in the diet), Hypothyroid (methimazole, 300 mg/l in drinking water), Hypothyroid+Salt, Hyperthyroid (daily s.c. injection of thyroxine (T4) 200 μg.kg^−1.day^−1), and Hyperthyroid+Salt.

CysAp = experiment: Urinary CysAp activity in rats, fluorometric analysis with cystinyl-β-naphthylamide; format: in vivo, Wistar rats
Procedure: (§1) All treatments were maintained during 6 weeks. […] The GluAp, […] […] A blank was performed in duplicate for each sample.

[2] = Proteinuria in rats (Bio-Rad DC Protein Assay kit, Lowry's method)
Procedure: as §2
(§3) At the end of the experiment, and after a 2-day period of adaptation to the metabolic cages, each animal was introduced in a metabolic cage during 24 hours. The dieresis was determined, and the urine was centrifuged for 10 min at 1,000 g, aliquoted and frozen at −80° C. until its use.
Proteinuria was determined using a commercial kit from Bio-Rad (DC Protein Assay kit) based on Lowry's method.

GluAp = experiment: Urinary GluAp activity in rats, fluorometric analysis with glutamyl-β-naphthylamide; conditions: for GluAp urinary activity change: rats, 6 weeks treatment (8% NaCl in diet; methimazole 300 mg/l drinking water; T4 200 μg/kg/day s.c.), versus control group
Procedure: as §2, §3
The GluAp, AlaAp, AspAp and CysAp activities were determined in duplicate by a fluorometric analysis using glutamyl-, alanyl-, aspartyl- and cystinyl-β-naphthylamide as substrates, respectively.
The substrates had been previously dissolved in 1 ml of DMSO and stored at -20° C.
The quantity of β-naphthylamine released as a result of the aminopeptidase activities was measured fluorometrically at an emission wavelength of 412 nm with excitation at 345 nm, taking a measurement of the fluorescence after 60 minutes, after stopping the reaction with 90 μl of 0.1 M acetate buffer.
A blank was performed in duplicate for each sample. […] The fluorescence difference between both measurements was quantified using a standard curve of β-naphthylamine dissolved in water at the concentrations of 12.5, 25, 50, 100 and 200 nmol/ml 90 μl of the incubation solution corresponding to each enzyme without the substrate were added to 20 μl of this solution, they were incubated during 60 minutes at 37° C., and 90 μl of 0.1 M acetate buffer were added. It was verified that the presence of the substrate in the incubation solutions in no way modified the fluorescence of the standard. All measurements were made in duplicate, and the linearity of the fluorescence obtained in the curve range was verified (0-200 nmol/ml).
Both for the determinations of the samples and for the blanks, reaction blanks were performed containing 20 μl of distilled water, 90 μl of incubation solution with or without substrate, respectively, and 90 μl of sodium acetate.
The specific activity of each aminopeptidase was expressed as nanomoles of hydrolyzed substrate per minute and per mg of creatinine. The linearity of the fluorescence obtained was verified with respect to hydrolysis time and creatinine content in a same sample.

AlaAp = experiment: Urinary AlaAp activity in rats, fluorometric analysis with alanyl-β-naphthylamide; format: in vivo, Wistar rats; conditions: for AlaAp urinary activity change: rats, 6 weeks treatment (8% NaCl in diet; methimazole 300 mg/l drinking water), versus control group
Procedure: as §1

AspAp = experiment: Urinary AspAp activity in rats, fluorometric analysis with aspartyl-β-naphthylamide; format: in vivo, Wistar rats
Procedure: as §1

[3] = 8% salt given simultaneously to hyperthyroid (T4) rats, 6 weeks, over the value of the hyperthyroid rats
[4] = rats, 6 weeks treatment (8% NaCl in diet; methimazole 300 mg/l drinking water; T4 200 μg/kg/day s.c.), versus control group
[5] = rats, 6 weeks treatment (methimazole 300 mg/l drinking water), versus control group
[6] = methimazole 300 mg/l given to rats treated with 8% salt (Hypothyroid+salt), 6 weeks, in comparison with rats treated with salt

Row | CysAp urinary activity change (CysAp; [5]) | AspAp urinary activity change (AspAp; [5]) | Compound | plasma creatinine change [1] | rise in CysAp activity (CysAp; [3]) | proteinuria change ([2]; 8% salt given simultaneously to hyperthyroid (T4) rats, 6 weeks) | proteinuria change [2, 4] | rise in GluAp activity (GluAp; [3]) | GluAp urinary activity change (GluAp) | rise in AlaAp activity (AlaAp; [3]) | AlaAp urinary activity change (AlaAp) | rise in AspAp activity (AspAp; [3]) | GluAp activity change (GluAp; [6]) | AlaAp activity change (AlaAp; [6])
1 | – | – | [Cl-].[Na+] [Salt, NaCl] | not accompanied | around fivefold | great increase | not accompanied with proteinuria | more than tenfold | significant increase | more than tenfold | significant increase | around fivefold | – | –
2 | no modification | no modification | Cn1cc[nH]c1=S [methimazole, reference compound] | – | – | – | no modification | – | no modification | – | significantly decreased | – | decrease | decrease
